The structures appear in SMILES notation.

We go through 78 compounds from the METLIN SMRT retention time set (Domingo-Almenara et al. 2019).

A short description of this data set: gradient 5% acetonitrile 3 min, to 50% in 2 min, to 85% in 15 min, held 3 min, 100 µL/min. The conditions noted are these: column: Zorbax Extend-C18 2.1 x 50 mm; eluents: water / acetonitrile, 0.1% formic acid. The method in brief: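 Retention times come from adduct peaks that were picked computationally and then checked by hand. The standards, pure and pooled in mixtures of ~100 molecules, were run on a Zorbax Extend-C18 column (2.1 × 50 mm, 1.8 μm) at 100 μL/min with water and acetonitrile, each with 0.1% formic acid. Detection was by quadrupole time-of-flight mass spectrometry in positive and negative ionization mode, with a dead volume of 40 μL and a dwell volume of 900 μL.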
With `CC(=O)N1CCc2cc(CNS(=O)(=O)c3ccccc3Cl)ccc21`, the RP-LC retention time came to 763 s. For the compound `O=C(NCc1ccco1)C1CCCN(c2nc3ccccc3[nH]c2=O)C1` (stereo not drawn), the RP-LC retention time was determined as 721 s.

Take `Cc1ccc(CNC(=O)c2cc3n(n2)CC(C)(C(=O)NCc2ccccc2)N(C)C3=O)cc1` (stereo not drawn): the RP-LC retention time was found to be 766 s.

Consider `CCN1CCCn2cc(S(=O)(=O)Nc3ccc(C)cc3C)cc2C1=O`, for which the RP-LC retention time is 763 s. In turn, `CCOC(=O)CNC(=O)Nc1ccc2c(c1)oc(=O)n2CC` gave an RP-LC retention time of 659 s. The same measure for `CCOc1ccc(-c2nc(CNC(=O)Nc3ccc(OC)c(OC)c3)c(C)o2)cc1`: 822 s. With `O=C(NCC1CCCO1)c1cn(-c2cc(N3CCSCC3)ncn2)cn1` (stereo not drawn) the figure was 717 s. The same measure for `COC(=O)c1ccc2c(=O)n(-c3ccc(Cl)cc3)c(N3CCOCC3)nc2c1`: 975 s; for `O=C(Cn1nc(C(=O)N2CCCCC2)c2ccccc21)Nc1nc2ccc(Cl)cc2s1`: 969 s.

In turn, `CCOc1ccccc1NC(=O)N1CCCC1c1nc(-c2cccc(OC)c2)no1` (stereo not drawn) yielded an RP-LC retention time of 1100 s.

Compound `Cc1ccc(C(=O)N2CCC3(CC2)N=C(c2ccc(C)cc2)NO3)cc1` returned an RP-LC retention time of 858 s. The same measure for `COc1cc(N)c(Cl)cc1C(=O)N[C@@H]1CCN(CCCOc2ccc(F)cc2)C[C@@H]1OC`: 772 s. With `Cc1noc(-c2nc(-c3ccc(Cl)cc3)no2)n1` the figure was 1070 s.

In turn, `Cc1ccccc1NC(=O)C1CCN(S(=O)(=O)c2ccc3c(c2)NC(=O)C(C)O3)CC1` (stereo not drawn) had an RP-LC retention time of 815 s. With `CCOc1ccccc1NC(=O)NCC(c1cccnc1)c1cn(C)c2ccccc12` (stereo not drawn) the figure was 753 s. With `O=S(=O)(c1cccn2c(SCc3ccccc3Cl)nnc12)N1CCCC1` the figure was 880 s; with `CCn1c(CCNC(=O)c2ccc(C)s2)nc2cccnc21`, 634 s. `CCc1cc(=O)n(CC(=O)Nc2cccc(F)c2)c(N)n1`: the RP-LC retention time came to 613 s.

Compound `CCn1c(C(=O)N2CCCC(C(=O)N3CCN(c4cccc(C)c4C)CC3)C2)cc2sccc21` (stereo not drawn) came in with an RP-LC retention time of 1140 s. With `O=C(Cn1c(=O)oc2ccccc21)N1CC(n2cc(COCc3ccccc3)nn2)C1` the figure was 773 s; with `O=C(NCc1ccccc1F)C1CC(=O)N(c2ccc3c(c2)CCN3C(=O)C2CC2)C1` (stereo not drawn), 745 s.

Regarding `Cc1ccccc1CNC(=O)C1(C)CCCN(S(=O)(=O)c2ccccc2)C1` (stereo not drawn), the RP-LC retention time was 944 s. The same measure for `COc1cccc2sc(N(C)CC(=O)N3CCn4c3nc3ccccc34)nc12`: 758 s; for `O=C1NCCOCCN(C(=O)Nc2ccc3c(c2)OCCO3)[C@@H]2CCCC[C@H]12`: 722 s; for `CCCS(=O)(=O)c1nc2ccc(NS(=O)(=O)c3ccc(C)cc3C)cc2s1`: 999 s. The same measure for `Cc1ccc(C)c(N2CCN(Cc3nc(-c4ccc(N5CCCC(C)C5)nc4)no3)CC2)c1` (stereo not drawn): 1280 s; for `COc1ccc(-c2ccnc3nc(Cc4ccc(F)cc4)nn23)cc1`: 920 s; for `Cc1cccc2c(C(=O)NC3CC3)cc(=O)[nH]c12`: 614 s.

With `Cc1sc2ccn(C)c(=O)c2c1C(=O)NCc1ccccc1Br`, the RP-LC retention time turned out to be 834 s. The same measure for `COc1ccc(S(=O)(=O)Nc2cc(C)ccn2)cc1`: 616 s; for `CN1CCCN(C(=O)c2cn(-c3ccc(-c4nc(C(C)(C)C)no4)cn3)cn2)CC1`: 656 s.

Turning to `COCCC1(NC(=O)c2ccsc2)CCN(S(C)(=O)=O)CC1`, the RP-LC retention time was determined as 691 s.

On to `O=C1C2N=NN(Cc3nc(-c4ccc5c(c4)OCO5)no3)C2C(=O)N1c1ccc2c(c1)OCO2` (stereo not drawn), for which the RP-LC retention time stood at 899 s. With `COCC(=O)N(C1CCOCC1)C1CCN(C(=O)Cc2ccc(Cl)cc2)CC1` the figure was 618 s; with `CCN(CC)c1ccc(NC(=O)Cn2cnc3c(sc4nc(-c5ccccc5)ccc43)c2=O)c(C)c1`, 723 s. The same measure for `Cc1ccc(CNC(=O)c2c(-c3cccc(Br)c3)noc2C)o1`: 987 s; for `CCOc1ccc(C(=O)N2CCCC2c2nc(-c3ccc(OC)cc3)no2)cc1` (stereo not drawn): 886 s. Compound `CCN1C(=O)C2(CCN(S(=O)(=O)c3c(C)nn(C)c3C)CC2)c2ccccc21` came in with an RP-LC retention time of 841 s. With `Cn1cc(CCN2CCC(C(=O)NCc3cccc(Cl)c3)CC2)c2cccnc21` the figure was 630 s; with `Cc1ccc(C)c(N2CCN(c3ccnc(SCC(=O)NCc4ccccc4)n3)CC2)c1`, 858 s.

The compound `O=C(NC1CCN(Cc2ccccc2)CC1)c1cn2nc(Cl)ccc2n1` had an RP-LC retention time of 621 s. Turning to `NC(=O)c1cc(-c2ccccc2)sc1NC(=O)c1ccc([N+](=O)[O-])o1`, the RP-LC retention time was 883 s. The compound `COc1cc(-c2nc3ncccn3c2NC2CCCCCC2)cc(OC)c1OC` displayed an RP-LC retention time of 790 s. With `O=c1ccc(-c2ccc3c(c2)OCO3)nn1CCc1nc(-c2cccc(Cl)c2)no1` the figure was 1010 s; with `O=C(Nc1ccc(-c2cn3cccnc3n2)cc1)c1cc(Br)ccc1Cl`, 707 s. `CC(C(=O)N1CCC(N2CCCCC2)CC1)C1CCN(S(=O)(=O)c2ccc(Cl)s2)CC1` (stereo not drawn) yielded an RP-LC retention time of 681 s. Take `N#Cc1cccc(NS(=O)(=O)c2cccc(-c3nc(-c4ccccc4)no3)c2)c1`: the RP-LC retention time is 1080 s. Compound `COc1cc([C@@H]2c3cc4c(cc3[C@H](O)[C@@H](CO)[C@@H]2C(=O)NC2CCCC2)OCO4)cc(OC)c1OC` displayed an RP-LC retention time of 689 s. With `COc1ccc(C(=O)N2CCCC2c2nc(-c3ccc(OC)c(OC)c3)no2)c(OC)c1` (stereo not drawn) the figure was 866 s; with `Cn1ncc2c(Sc3ccc(Cl)cc3)ncnc21`, 1000 s. With `C[C@H](NC(=O)Cc1cc(F)cc(F)c1)C(=O)N[C@H](C(=O)OC(C)(C)C)c1ccccc1` the figure was 944 s; with `CC1=C(c2ccc(F)cc2)S(=O)(=O)N=C1N1CCCN(C(=O)c2cccs2)CC1`, 806 s; with `Cc1cc(S(=O)(=O)N2CC(c3nc(-c4ncccn4)no3)C2)c(Cl)cc1Cl`, 834 s. For the compound `O=C(c1cccc(Br)c1)N1CCN(c2cc(-c3ccc(Cl)cc3)[nH]n2)CC1`, the RP-LC retention time came out at 958 s.

Compound `CCOc1ccc(-c2noc(N3CCC(C(=O)NCC4CCCO4)CC3)n2)cc1OC` (stereo not drawn) returned an RP-LC retention time of 749 s. Take `Cc1ccc(CNC(=O)C2(C)CCCN(C(=O)NC(C)C)C2)cc1` (stereo not drawn): the RP-LC retention time was 766 s.

`CCc1ccc(-n2c(CN3CCN(C(=O)NC(C)(C)C)CC3)nc3cccnc32)cc1` registered an RP-LC retention time of 687 s. With `Cc1cc(C)n2c(Nc3ccc(Cl)cc3)c(-c3ccc(O)cc3)nc2n1` the figure was 707 s; with `O=C(NCc1ccccc1Cl)C1CCN(S(=O)(=O)c2cc(C(=O)N3CCCC3)cs2)CC1`, 815 s.

Turning to `Cc1ccn2c(NC(=O)c3cccc(Br)c3)c(-c3ccccc3)nc2c1`, the RP-LC retention time amounted to 715 s. In turn, `O=S(=O)(c1cccn2cnnc12)N(Cc1ccccc1F)c1ccc(F)c(F)c1` yielded an RP-LC retention time of 867 s. The same measure for `O=C(c1ccccc1Cl)N1CCN(S(=O)(=O)c2cc3c4c(c2)CCC(=O)N4CCC3)CC1`: 796 s; for `CCOc1cc(=O)n2c(c1C(=O)NCCCN1CCCc3ccccc31)CCCCC2`: 733 s; for `Cc1nnc(NC(=O)Cn2cnc(-c3cccs3)cc2=O)s1`: 630 s. The same measure for `Cc1ccc(S(=O)(=O)Nc2cc(-c3cn4ccccc4n3)ccc2C)cc1`: 668 s; for `Cc1cc(C)cc(C(=O)N2CCC3(CC2)NC(=O)c2cc(F)ccc2N3C)c1`: 787 s; for `Cc1nn(-c2ccccc2)c2c1N(CCCC(=O)NCCC(C)C)C(=O)CS2`: 657 s. `Cc1cccc(Cn2cccc2-c2nc(-c3ccc4c(c3)OCO4)no2)c1` had an RP-LC retention time of 1360 s. With `O=C(c1ccco1)N1CCN(S(=O)(=O)c2cccc(-c3nc(-c4ccccc4)no3)c2)CC1` the figure was 1060 s; with `CCN1c2ccccc2C(=O)NC12CCN(C(=O)Nc1ccccc1C)CC2`, 731 s; with `CCN1CCN(c2ncc(C(=O)Nc3c(F)cc(F)cc3Br)c3ccccc23)CC1`, 581 s.

`O=C(Cc1cccs1)N1CCC2(CC1)OCCN2S(=O)(=O)c1ccccc1` came in with an RP-LC retention time of 783 s. With `Cc1ccc(-n2cc3c(N4CCCC(C(=O)NCc5ccc(F)cc5F)C4)ncnc3n2)cc1` (stereo not drawn) the figure was 729 s; with `CCOCCCNCc1ccc(-c2ccc(Cl)cc2Cl)o1`, 765 s; with `O=C(C1CC1)N1CCCC(OCc2nc(-c3ccncc3)no2)C1` (stereo not drawn), 619 s. As for `Cc1nc([C@@H]2CN(C(=O)C(C)(C)C)C[C@H]2C(N)=O)n[nH]1`, the RP-LC retention time is 564 s. The same measure for `Cc1ccc(Cl)cc1NC(=O)N1CCCC(C)(C(=O)NCc2ccccc2)C1` (stereo not drawn): 1040 s; for `CCc1cc(=O)n(CC(=O)Nc2ccc3c(c2)OCO3)c(N2CCOCC2)n1`: 671 s.
